# Source: patent US12679843B2, “Pyrrolopyrimidine amines as complement inhibitors” (BioCryst Pharmaceuticals, Inc., priority 2020, dated 2026)
# Target: Factor D (Homo sapiens, UniProt P00746)
# Test: Factor D esterolytic assay (Z-Lys-SBzl thioester substrate, DTNB, 405 nm)
# Assay type: biochemical
# Conditions: substrate Z-Lys-SBzl 1.29 mM, 100 mM HEPES, 500 mM NaCl, pH 7.5, 10% DMSO, tested a minimum of three times
# Summary of the method: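 Run in pH 7.5 HEPES (100 mM) with 500 mM NaCl and 10% DMSO, with compound preincubated at room temperature or not before adding 1.29 mM Z-Lys-SBzl. Free thiol released by Factor D reacts with DTNB, and rate is followed at 405 nm minus 690 nm over 600 s. IC50 derives from rate-based inhibition, minimum three replicates.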
# Sequence of Factor D (P00746 26-253): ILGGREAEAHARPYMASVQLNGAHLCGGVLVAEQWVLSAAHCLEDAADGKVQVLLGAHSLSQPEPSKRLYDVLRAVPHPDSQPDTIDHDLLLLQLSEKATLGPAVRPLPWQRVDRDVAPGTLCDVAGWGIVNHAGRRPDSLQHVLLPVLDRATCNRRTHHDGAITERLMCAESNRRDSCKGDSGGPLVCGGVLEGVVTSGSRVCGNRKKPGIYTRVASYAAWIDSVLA
row,IC50 [nM],Compound
1,< 100,"COc1cc(F)cc2c3c(N)ncnc3n(CC(=O)N3[C@H](C(=O)Nc4cccc(Br)n4)C[C@@]4(C)C[C@@H]34)c12 [Compound 281a, (1R,3S,5R)-2-(2-(4-amino-6-fluoro-8-methoxy-9H-pyrimido[4,5-b]indol-9-yl)acetyl)-N-(6-bromopyridin-2-yl)-5-methyl-2-azabicyclo[3.1.0]hexane-3-carboxamide]"
2,< 100,"Cc1ccnc2c3c(N)ncnc3n(CC(=O)N3[C@H](C(=O)Nc4cccc(Br)n4)C[C@@]4(C)C[C@@H]34)c12 [Compound 283g, (1R,3S,5R)-2-(2-(4-amino-8-methyl-9H-pyrido[2′,3′:4,5]pyrrolo[2,3-d]pyrimidin-9-yl)acetyl)-N-(6-bromopyridin-2-yl)-5-methyl-2-azabicyclo[3.1.0]hexane-3-carboxamide]"
3,< 100,"Cc1ccc2c(n1)c1c(N)ncnc1n2CC(=O)N1[C@H](C(=O)Nc2cccc(Br)n2)C[C@@]2(C)C[C@@H]12 [Compound 286a, (1R,3S,5R)-2-(2-(4-amino-6-methyl-9H-pyrido[2′,3′:4,5]pyrrolo[2,3-d]pyrimidin-9-yl)acetyl)-N-(6-bromopyridin-2-yl)-5-methyl-2-azabicyclo[3.1.0]hexane-3-carboxamide]"
4,< 100,"Cc1cc(C(F)(F)F)cc2c3c(N)ncnc3n(CC(=O)N3[C@H](C(=O)Nc4cccc(Cl)n4)C[C@@]4(C)C[C@@H]34)c12 [Compound 287a, (1R,3S,5R)-2-(2-(4-amino-8-methyl-6-(trifluoromethyl)-9H-pyrimido[4,5-b]indol-9-yl)acetyl)-N-(6-chloropyridin-2-yl)-5-methyl-2-azabicyclo[3.1.0]hexane-3-carboxamide]"
5,< 100,"Cc1cc(-c2cccnc2)cc2c3c(N)ncnc3n(CC(=O)N3[C@H](C(=O)Nc4cccc(Br)n4)C[C@@]4(C)C[C@@H]34)c12 [Compound 289a, (1R,3S,5R)-2-(2-(4-amino-8-methyl-6-(pyridin-3-yl)-9H-pyrimido[4,5-b]indol-9-yl)acetyl)-N-(6-bromopyridin-2-yl)-5-methyl-2-azabicyclo[3.1.0]hexane-3-carboxamide]"
6,< 100,"C[C@@]12C[C@@H](C(=O)Nc3cccc(Br)n3)N(C(=O)Cn3c4ccc(Br)nc4c4c(N)ncnc43)[C@@H]1C2 [Compound 292a, (1R,3S,5R)-2-(2-(4-amino-6-bromo-9H-pyrido[2′,3′:4,5]pyrrolo[2,3-d]pyrimidin-9-yl)acetyl)-N-(6-bromopyridin-2-yl)-5-methyl-2-azabicyclo[3.1.0]hexane-3-carboxamide]"
7,> 1000,"Nc1ncnc2ccc(CC(=O)N3C[C@H](F)C[C@H]3C(=O)NCc3cccc(Cl)c3F)cc12 [Compound 294c, (2S,4R)-1-(2-(4-aminoquinazolin-6-yl)acetyl)-N-(3-chloro-2-fluorobenzyl)-4-fluoropyrrolidine-2-carboxamide]"
8,< 100,"Nc1ncnc2c1c1nc(-c3ccccc3)ccc1n2CC(=O)N1[C@@H]2C[C@@H]2C[C@H]1C(=O)Nc1cccc(Br)n1 [Compound 298c, (1R,3S,5R)-2-(2-(4-amino-6-phenyl-9H-pyrido[2′,3′:4,5]pyrrolo[2,3-d]pyrimidin-9-yl)acetyl)-N-(6-bromopyridin-2-yl)-2-azabicyclo[3.1.0]hexane-3-carboxamide]"
9,< 100,"C[C@@]12C[C@@H](C(=O)Nc3cccc(Br)n3)N(C(=O)Cn3c4ccc(-c5ccccc5)nc4c4c(N)ncnc43)[C@@H]1C2 [Compound 299a, (1R,3S,5R)-2-(2-(4-amino-6-phenyl-9H-pyrido[2′,3′:4,5]pyrrolo[2,3-d]pyrimidin-9-yl)acetyl)-N-(6-bromopyridin-2-yl)-5-methyl-2-azabicyclo[3.1.0]hexane-3-carboxamide]"

# Second part, the compound before the results:
row,Compound,IC50 [nM]
1,"Cc1cc(O)cc2c3c(N)ncnc3n(CC(=O)N3[C@@H]4C[C@@H]4C[C@H]3C(=O)Nc3cccc(Br)n3)c12 [Compound 282a, (1R,3S,5R)-2-(2-(4-amino-6-hydroxy-8-methyl-9H-pyrimido[4,5-b]indol-9-yl)acetyl)-N-(6-bromopyridin-2-yl)-2-azabicyclo[3.1.0]hexane-3-carboxamide]",< 100
2,"Cc1ccnc2c3c(N)ncnc3n(CC(=O)N3[C@@H]4C[C@@H]4C[C@H]3C(=O)Nc3cccc(Br)n3)c12 [Compound 284a, (1R,3S,5R)-2-(2-(4-amino-8-methyl-9H-pyrido[2′,3′:4,5]pyrrolo[2,3-d]pyrimidin-9-yl)acetyl)-N-(6-bromopyridin-2-yl)-2-azabicyclo[3.1.0]hexane-3-carboxamide]",< 100
3,"Cc1ccc2c(n1)c1c(N)ncnc1n2CC(=O)N1[C@@H]2C[C@@H]2C[C@H]1C(=O)Nc1cccc(Br)n1 [Compound 285g, (1R,3S,5R)-2-(2-(4-amino-6-methyl-9H-pyrido[2′,3′:4,5]pyrrolo[2,3-d]pyrimidin-9-yl)acetyl)-N-(6-bromopyridin-2-yl)-2-azabicyclo[3.1.0]hexane-3-carboxamide]",< 100
4,"Cc1cc(-c2cccnc2)cc2c3c(N)ncnc3n(CC(=O)N3[C@@H]4C[C@@H]4C[C@H]3C(=O)Nc3cccc(Br)n3)c12 [Compound 288c, (1R,3S,5R)-2-(2-(4-amino-8-methyl-6-(pyridin-3-yl)-9H-pyrimido[4,5-b]indol-9-yl)acetyl)-N-(6-bromopyridin-2-yl)-2-azabicyclo[3.1.0]hexane-3-carboxamide]",< 100
5,"Nc1ncnc2c1c1nc(Br)ccc1n2CC(=O)N1[C@@H]2C[C@@H]2C[C@H]1C(=O)Nc1cccc(Br)n1 [Compound 290g, (1R,3S,5R)-2-(2-(4-amino-6-bromo-9H-pyrido[2′,3′:4,5]pyrrolo[2,3-d]pyrimidin-9-yl)acetyl)-N-(6-bromopyridin-2-yl)-2-azabicyclo[3.1.0]hexane-3-carboxamide]",< 100
6,"Cc1cc(C(F)(F)F)cc2c3c(N)ncnc3n(CC(=O)N3[C@@H]4C[C@@H]4C[C@H]3C(=O)Nc3cccc(Cl)n3)c12 [Compound 291a, (1R,3S,5R)-2-(2-(4-amino-8-methyl-6-(trifluoromethyl)-9H-pyrimido[4,5-b]indol-9-yl)acetyl)-N-(6-chloropyridin-2-yl)-2-azabicyclo[3.1.0]hexane-3-carboxamide]",< 100
7,"Cc1cc(C(F)(F)F)cc2c3c(N)ncnc3n(CC(=O)N3[C@@H]4C[C@@H]4C[C@H]3C(=O)Nc3cncc(Br)n3)c12 [Compound 295a, (1R,3S,5R)-2-(2-(4-amino-8-methyl-6-(trifluoromethyl)-9H-pyrimido[4,5-b]indol-9-yl)acetyl)-N-(6-bromopyrazin-2-yl)-2-azabicyclo[3.1.0]hexane-3-carboxamide]",< 100
8,"Cc1cc(C(F)(F)F)cc2c3c(N)ncnc3n(CC(=O)N3[C@H](C(=O)Nc4cncc(Br)n4)C[C@@]4(C)C[C@@H]34)c12 [Compound 296a, (1R,3S,5R)-2-(2-(4-amino-8-methyl-6-(trifluoromethyl)-9H-pyrimido[4,5-b]indol-9-yl)acetyl)-N-(6-bromopyrazin-2-yl)-5-methyl-2-azabicyclo[3.1.0]hexane-3-carboxamide]",< 100
9,"CNC(=O)Nc1ccc2c(c1)c1c(N)ncnc1n2CC(=O)N1[C@@H]2C[C@@H]2C[C@H]1C(=O)Nc1cccc(Br)n1 [Compound 297d, (1R,3S,5R)-2-(2-(4-amino-6-(3-methylureido)-9H-pyrimido[4,5-b]indol-9-yl)acetyl)-N-(6-bromopyridin-2-yl)-2-azabicyclo[3.1.0]hexane-3-carboxamide]",< 100
